Structures are written as SMILES.

With `CCOc1ccc(NC(=O)N(C)c2nc(Cl)c(S(=O)(=O)N(C)C)s2)cc1`, the melting point – broadly, the temperature of the solid-liquid transition – was 215 °C.
`CCCN(C(=O)Nc1ccc(OCC)cc1)c1nc(C)c(S(=O)(=O)NC)s1` came in with a melting point of 154 °C.
On to `CCCN(C(=O)Nc1ccc(N2CCOCC2)cc1)c1nc(C)c(S(=O)(=O)NC)s1`, for which the melting point was determined as 179 °C.
Consider `CCOc1ccc(NC(=O)N(C)c2nc(C)c(S(=O)(=O)NCc3cccnc3)s2)cc1`, for which the melting point amounted to 158 °C.
With `CCOc1ccc(NC(=O)N(C)c2nc(C)c(S(N)(=O)=O)s2)cc1` the figure was 196 °C; with `CNS(=O)(=O)c1sc(N(CCOC)C(=O)Nc2ccc(N3CCOCC3)cc2)nc1C`, 188 °C.
Regarding `CNS(=O)(=O)c1sc(N(Cc2ccncc2)C(=O)Nc2ccc(N3CCCC3)cc2)nc1C`, the melting point was 208 °C.
Molecule `Cc1nc(N(C)C(=O)Nc2ccc(N3CCCC3)cc2)sc1S(=O)(=O)NCC1CC1` returned a melting point of 205 °C.
Molecule `CCc1nc(N(C)C(=O)Nc2ccc(N3CCCC3)cc2)sc1S(=O)(=O)NC` yielded a melting point of 217 °C.
`Cc1nc(N(C)C(=O)Nc2ccc(OCC(O)CO)cc2)sc1S(=O)(=O)N(C)C` (centres unmarked) came in with a melting point of 156 °C.
`CCOc1ccc(NC(=O)N(Cc2ccncc2)c2nc(C)c(S(=O)(=O)NC)s2)cc1` had a melting point of 198 °C.
Take `CCc1nc(N(CCCO)C(=O)Nc2ccc(N3CCCC3)cc2)sc1S(=O)(=O)NC`: the melting point worked out at 161 °C.
Molecule `CCOc1ccc(NC(=O)N(C)c2nc(CC)c(S(=O)(=O)NC)s2)cc1` returned a melting point of 210 °C.
In turn, `CCOc1ccc(NC(=O)N(CCCCO)c2nc(C)c(S(=O)(=O)NC)s2)cc1` came in with a melting point of 164 °C.
For `CCOc1ccc(NC(=O)N(CC2CCCO2)c2nc(C)c(S(=O)(=O)NC)s2)cc1` (centres unmarked), the melting point was found to be 150 °C.
Molecule `CCOc1ccc(NC(=O)N(Cc2ccccn2)c2nc(C)c(S(=O)(=O)NC)s2)cc1` had a melting point of 194 °C.
With `C=CCN(C(=O)Nc1ccc(OCC)cc1)c1nc(C)c(S(=O)(=O)NC)s1`, the melting point came out at 162 °C.
The same measure for `CCOc1ccc(NC(=O)N(CCCNC(=O)OC(C)(C)C)c2nc(C)c(S(=O)(=O)NC)s2)cc1`: 146 °C; for `CCOc1ccc(NC(=O)N(CCCN)c2nc(C)c(S(=O)(=O)NC)s2)cc1.Cl`: 150 °C; for `Cc1nc(N(CCN(C)C)C(=O)Nc2ccc(-c3ccccc3)cc2)sc1S(=O)(=O)N(C)C(=O)Nc1ccc(-c2ccccc2)cc1`: 190 °C.
As for `Cc1nc(N(C)C(=O)Nc2ccc(-c3cccn3C(=O)OC(C)(C)C)cc2)sc1S(=O)(=O)N(C)C`, the melting point was 84 °C.
The molecule `Cc1nc(N(C)C(=O)Nc2ccc(OCC(C)(C)C)cc2)sc1S(=O)(=O)N(C)C` displayed a melting point of 158 °C.
`Cc1nc(N(C)C(=O)Nc2ccc(-c3ccccc3)cc2)sc1S(=O)(=O)N(C)C`: the melting point was determined as 228 °C.
With `CCOc1ccc(NC(=O)N(CCCN2CCCC2=O)c2nc(C)c(S(=O)(=O)NC)s2)cc1`, the melting point was found to be 188 °C.
`CCCN(C(=O)Nc1ccc(-c2ccccc2)cc1)c1nc(C)c(S(N)(=O)=O)s1` had a melting point of 144 °C.
On to `CCOc1ccc(NC(=O)N(CCCO)c2nc(C)c(S(=O)(=O)NC)s2)cc1`, for which the melting point came to 161 °C.
With `CCOc1ccc(NC(=O)N(CCOC)c2nc(C)c(S(N)(=O)=O)s2)cc1` the figure was 171 °C.
For `CCOc1ccc(NC(=O)N(CCN(C)C)c2nc(C)c(S(N)(=O)=O)s2)cc1`, the melting point worked out at 162 °C.
The same measure for `CCOc1ccc(NC(=O)N(C)c2ncc(S(=O)(=O)N(C)C)s2)cc1`: 194 °C; for `CCOc1ccc(NC(=O)N(Cc2cccnc2)c2nc(C)c(S(N)(=O)=O)s2)cc1`: 193 °C; for `CCOc1ccc(N(C)C(=O)Nc2nc(C)c(S(=O)(=O)N(C)C)s2)cc1`: 118 °C.
As to `CNS(=O)(=O)c1sc(N(C)C(=O)Nc2ccc(N3CCC(NC(=O)OC(C)(C)C)C3)cc2)nc1C` (centres unmarked), the melting point is 188 to 189 °C (dec.).
In turn, `CCOC(=O)N1CC2CCN(c3ccc(NC(=O)N(C)c4nc(S(=O)(=O)NC5CC5)c(C)s4)cc3)C2C1` (centres unmarked) returned a melting point of 140 °C.
Take `CNS(=O)(=O)c1sc(N(C)C(=O)Nc2ccc(N3CC=CC3)cc2)nc1C`: the melting point is 208 to 209 °C.
Take `Cc1nc(N(C)C(=O)Nc2ccc(N3CC=CC3)cc2)sc1S(=O)(=O)NC1CC1`: the melting point was in the range of 186 to 187 °C.
As to `CCOC(=O)N1CC2CCC(c3ccc(NC(=O)N(C)c4nc(C)c(S(=O)(=O)N(C)C)s4)cc3)C2C1` (centres unmarked), the melting point was 136 to 137 °C.
On to `Cc1nc(N(C)C(=O)Nc2ccc(N3CCC3)cc2)sc1S(=O)(=O)N(C)C`, for which the melting point is 193 to 195 °C.
Regarding `Cc1nc(N(C)C(=O)Nc2ccc(N3CCCCC3)cc2)sc1S(=O)(=O)N(C)C`, the melting point was 185 °C.
With `CNS(=O)(=O)c1sc(N(C)C(=O)Nc2ccc(-c3ccccc3C)cc2C)nc1C` the figure was 148 °C; with `Cc1nc(N(C)C(=O)Nc2ccc(-c3ccccc3)cc2)sc1S(=O)(=O)NCC1CC1`, 176 °C; with `CCc1nc(N(CCCN(CC)CC)C(=O)Nc2ccc(-c3ccccc3)cc2)sc1S(N)(=O)=O`, 177 °C.
Take `CCCN(C(=O)Nc1ccc(-c2ccccc2)cc1)c1nc(C)c(S(=O)(=O)NCCO)s1`: the melting point turned out to be 156 °C.
As for `CNS(=O)(=O)c1sc(N(CCCN(C)C)C(=O)Nc2ccc(-c3ccccc3)cc2)nc1C`, the melting point is 196 °C.
In the case of `CNS(=O)(=O)c1sc(N(Cn2ccnc2)C(=O)Nc2ccc(-c3ccccc3)cc2)nc1C`, the melting point is 205 °C.
For `CCCOc1ccc(NC(=O)N(C)C2=CC(C)=C(S(=O)(=O)NCCOC)C2)cc1`, the melting point turned out to be 97 °C.
With `CNS(=O)(=O)c1sc(N(CCCN(C)c2ccccc2)C(=O)Nc2ccc(-c3ccccc3)cc2)nc1C` the figure was 148 °C; with `CNS(=O)(=O)c1sc(N(CCOC)C(=O)Nc2ccc(N3CCCC3)cc2)nc1C`, 184 °C; with `CCCOc1ccc(NC(=O)N(CCN(C)C)c2nc(C)c(S(=O)(=O)NC)s2)cc1`, 165 °C.
Molecule `Cc1nc(N(C)C(=O)Nc2ccc(-c3ccccc3)cc2)sc1S(N)(=O)=O` returned a melting point of 221 °C.
For `Cc1nc(N(C)C(=O)Nc2ccc(N3CCOCC3)cc2)sc1S(N)(=O)=O`, the melting point is 225 °C.
Consider `CNS(=O)(=O)c1sc(N(CCN(C)C)C(=O)Nc2ccc(-c3ccccc3)cc2)nc1C`, for which the melting point is 154 °C.
Molecule `CNS(=O)(=O)c1sc(N(CCN(C)C)C(=O)Nc2ccc(N3CCOCC3)cc2)nc1C` registered a melting point of 196 °C.
Consider `CCOc1ccc(NC(=O)N(CCCN(C)C)c2nc(C)c(S(=O)(=O)NC)s2)cc1`, for which the melting point came out at 185 °C.
Molecule `Cc1nc(N(Cc2ccncc2)C(=O)Nc2ccc(N3CCOCC3)cc2)sc1S(N)(=O)=O` came in with a melting point of 186 °C.
With `CCOc1ccc(NC(=O)N(CCN(C)C)c2nc(C)c(S(=O)(=O)NC3CC3)s2)cc1` the figure was 168 °C; with `CCOc1ccc(NC(=O)N(C)c2nc(Cl)c(S(=O)(=O)NC3CC3)s2)cc1`, 183 °C; with `CCN(C(=O)Nc1ccc(N2CCOCC2)cc1)c1nc(Cl)c(S(=O)(=O)N(C)C)s1`, 190 °C.
Take `CN(C(=O)Nc1ccc(N2CCOCC2)cc1)c1nc(Cl)c(S(=O)(=O)NC2CC2)s1`: the melting point turned out to be 241 °C.
Regarding `CC(=O)Nc1cccc(Oc2ccc(NC(=O)N(C)c3nc(Cl)c(S(=O)(=O)N(C)C)s3)cc2)c1`, the melting point is 219 °C.
With `Cc1nc(N(C)C(=O)Nc2ccc(N3CCOCC3)cc2)sc1S(=O)(=O)N1CCCCC1` the figure was 206 °C.
With `Cc1nc(N(C)C(=O)Nc2ccc(N3CCSCC3)cc2)sc1S(=O)(=O)N(C)C` the figure was 196 °C; with `C=C(Nc1ccc(N2CCOCC2)cc1)Nc1nc(C)c(S(=O)(=O)N(C)C)s1`, 188 °C.
In turn, `CCOc1ccc(NC(=O)N(C)c2nc(CC)c(S(=O)(=O)N(C)C)s2)cc1` came in with a melting point of 176 °C.
Molecule `CCOc1ccc(NC(=O)N(CCN2CCOCC2)c2nc(C)c(S(=O)(=O)N(C)C)s2)cc1` returned a melting point of 204 °C.
In turn, `COCCN(C)S(=O)(=O)c1sc(N(C)C(=O)Nc2ccc(N3CCOCC3)cc2)nc1C` yielded a melting point of 156 °C.
`Cc1nc(N(C)C(=O)Nc2ccc(N3CCOCC3)cc2)sc1S(=O)(=O)N(C)CCn1ccnn1` registered a melting point of 172 °C.
`CCCOc1ccc(NC(=O)N(C)c2nc(C)c(S(=O)(=O)N(C)C)s2)cc1`: the melting point turned out to be 147 °C.
The molecule `CCOc1ccc(NC(=O)N(Cc2ccccc2)c2nc(C)c(S(=O)(=O)N(C)C)s2)cc1` displayed a melting point of 187 °C.
Molecule `CCOc1ccc(NC(=O)N(Cc2ccncc2)c2nc(C)c(S(=O)(=O)N(C)C)s2)cc1` had a melting point of 188 °C.
The molecule `CCOc1ccc(NC(=O)N(CCNC(C)=O)c2nc(C)c(S(=O)(=O)N(C)C)s2)cc1` came in with a melting point of 184 °C.
The same measure for `CCOc1ccc(NC(=O)N(C)c2nc(C)c(S(=O)(=O)NCC3CCCO3)s2)cc1` (centres unmarked): 168 °C.
With `CCOc1ccc(NC(=O)N(C)c2nc(C)c(S(=O)(=O)NCc3ccc4c(c3)OCO4)s2)cc1`, the melting point amounted to 178 °C.
In turn, `CCOc1ccc(NC(=O)N(CCCCNC(=O)OC(C)(C)C)c2nc(C)c(S(=O)(=O)N(C)C)s2)cc1` returned a melting point of 152 °C.
`CN(C(=O)Nc1ccc(N2CCOCC2)c(F)c1)c1nc(Cl)c(S(=O)(=O)N(C)C)s1` gave a melting point of 196 °C.
`CCOc1ccc(NC(=O)N(Cc2ccccc2)c2nc(C)c(S(=O)(=O)NC3CC3)s2)cc1` displayed a melting point of 178 °C.
The molecule `CCOc1ccc(NC(=O)N(Cc2ccncc2)c2nc(C)c(S(=O)(=O)NC3CC3)s2)cc1` displayed a melting point of 200 °C.
`CCOc1ccc(NC(=O)Nc2nc(C)c(S(=O)(=O)NCCOC)s2)cc1` came in with a melting point of 137 °C.
`CCOc1ccc(NC(=O)N(C)c2nc(C)c(S(=O)(=O)NCCn3ccnn3)s2)cc1` came in with a melting point of 154 °C.
`CCOc1ccc(NC(=O)N(c2nc(C)c(S(=O)(=O)N(C)C)s2)C(C)CC)cc1` (centres unmarked) gave a melting point of 130 °C.
`CCc1nc(N(CCCO)C(=O)Nc2ccc(N3CCOCC3)cc2)sc1S(=O)(=O)NC` returned a melting point of 169 °C.

(Values after US6500817B1, “Thiazolyl urea derivatives and their utilization as antiviral agents” (Bayer Aktiengesellschaft, priority 1999, dated 2002).)
